The results in this text go back to patent US20220133669A1, “PHARMACEUTICAL COMPOSITIONS COMPRISING 15-HETRE AND METHODS OF USE THEREOF” (DS Biopharma Limited, priority 2020, published 2022).

Data set [1] relates to human islet microtissue. Kind of data set: Cytotoxicity pretest: ATP content (CellTiter-Glo cell viability) in islet microtissues. Format: cell-based. As to conditions: after 7 days of treatment. How it is done: (§1) From Days 0-7, a human islet microtissue was established. On Day 7, 15-HETrE treatment commenced. From Days 9-12, the culture media was renewed and the compound (15-HETrE) was re-dosed. On Day 14, an assessment on islet cell viability was performed—tissues were lysed to measure ATP content using Promega CellTiter-Glo luminescent cell viability assay. On Day 14, an assessment on islet cell function was also performed—conditioned media from the last 48 hours of the experiment was collected to test chronic insulin secretion. And lastly, on Day 14, insulin was quantified—following dilutions in Krebs-Ringer HEPES buffer, chronic insulin secretion was quantified using STELLUX Chemi Human Insulin ELISA assay.

The test system of data set [2] is human islet microtissue. Kind of data set: Cytotoxicity pretest: chronic insulin secretion (Human Insulin ELISA) of islet microtissues. Format: cell-based. As to conditions: 300 μM; after 7 days of treatment. How it is done:
as §1
A general note: An ELISA detects its analyte on a solid surface through an enzyme-linked reagent.

Data set [3] concerns human islet microtissue. Kind of data set: 15-HETrE efficacy: human islet microtissue function under glucotoxic conditions. Format: cell-based. The method, then:
(§2) The aim of the following study was to determine the effects of 15(S)-HETrE activity on diabetes. This aim was accomplished by (1) identifying a cytotoxic threshold of 15(S)-HETrE in islet microtissues and (2) testing the effects of 15(S)-HETrE on human islet microtissue function under conditions of glucotoxicity and cytokine stress.
(§3) From Days 0-13, an islet microtissue model was established and glucotoxicity pre-test performed. Day 14 marked the start of glucotoxicity assay and 12.5 μM, 25 μM and 50 μM 15(S)-HETrE treatment. From Days 16-19, the culture media was renewed, and the compound (15-HETrE) was re-dosed. Day 12 marked the start of the cytokine stress assay for the 12.5 μM, 25 μM and 50 μM 15(S)-HETrE treatment. On Day, 12 an intermediate assessment of the compound effects was also performed (e.g., Day 7 incubation in glucotoxic conditions). On Day 12, a renewal of the culture media and compound treatment was performed. On Days 23 and 26, a renewal of the culture media and compound treatment was also performed. Lastly, on Day 28, an assessment of the compound effects under glucotoxicity/cytokine stress at the end of 14- and 7-day incubation was performed.

Data set [4] has as its system human islet microtissue. Kind of data set: 15-HETrE efficacy: human islet microtissue under cytokine stress. Format: cell-based. The settings on record: 50 μM. How it is done:
as §2, §3

Data set [5] is described as follows: Tissue distribution following oral administration of 15-HETrE. Format: in vivo, rats. The settings on record: 500 mg/kg p.o. once daily for 7 days; tissues taken 24 hours after final dose. The method, then:
The objective of this study was to examine distribution of orally administered 15-HETrE. Male CRL:CD rats were obtained from Charles River Laboratories. Upon receipt, animals were allowed to acclimatize for 5 days prior to start of testing, housed under a 12 h light/dark cycle, and provided a pellet diet (RM-1) and water ad libitum. Animals were dosed with 15-HETrE or vehicle (0.5% HPMC in ASTM Type 1 water) p.o. once daily for 7 days. Animals were monitored at 0.25, 0.5, and 1 hour post dose. During the treatment period, individual body weight was measured daily as well as clinical signs of behavior and survival.
24 hours after the final p.o. dose, each animal was killed by anaesthetic overdose with an intraperitoneal injection of pentobarbitone. A blood sample was collected from the descending vena cava. Lungs, heart, liver, kidneys, spleen, colon, and an area of shaved skin were harvested from each animal, rinsed in PBS, dabbed dry, weighed, and snap-frozen by immersion in liquid nitrogen. All tissue samples were stored frozen at −80° C.

As for `CCCCC[C@H](O)/C=C/C=C\C/C=C\CCCCCCC(=O)O` [15(S)-HETrE], the ATP content entry in data set [1] (11.1 μM) is “significant increase”; in data set [1] (300 μM), “significant decrease”; in data set [4], “significant decrease”. Further, the chronic insulin secretion result is recorded as “significant decrease” in data set [2], “reduced” in data set [3] (day 7) and “reduced” in data set [3] (day 14). Further, the “fold stimulation of insulin secretion” value in data set [3] (25 μM, day 14) is “improved”. In addition, in data set [3] (50 μM), the ATP levels result is on record as “significantly decreased”. The stimulated insulin secretion result in data set [3] (day 7, 50 μM) is reported as “significant decrease”. In addition, the basal insulin secretion entry in data set [3] (day 7, 12.5, 25 and 50 μM) is recorded as “dose-dependent decrease”; in data set [3] (day 14, 12.5, 25 and 50 μM), “dose-dependent decrease”.

Turning to `CCCCCC(O)/C=C/C=C\C/C=C\CCCCCCC(=O)O` (stereo not drawn) [15-HETrE, 15-hydroxy-eicosa-8(Z),11(Z),13(E)-trienoic acid], in data set [5], the “tissue distribution of 15-HETrE (heart, kidney, liver, spleen, lung, plasma, skin, colon) vs control animals” value is listed as “targeted all organs tested, including the skin”.
